Test results taken from ChEMBL document CHEMBL5465560, “Selectivity Literature for EUbOPEN Chemogenomic Library” (2024).

Assays:
[1] = molecular target: T1, Tyrosine-protein kinase TXK (Homo sapiens) (UniProt P42681); assay: Selectivity interaction (KinomeScan (DiscoverX)) EUB0000655a TXK; conditions: at 10 µM
T1 sequence (whole entry): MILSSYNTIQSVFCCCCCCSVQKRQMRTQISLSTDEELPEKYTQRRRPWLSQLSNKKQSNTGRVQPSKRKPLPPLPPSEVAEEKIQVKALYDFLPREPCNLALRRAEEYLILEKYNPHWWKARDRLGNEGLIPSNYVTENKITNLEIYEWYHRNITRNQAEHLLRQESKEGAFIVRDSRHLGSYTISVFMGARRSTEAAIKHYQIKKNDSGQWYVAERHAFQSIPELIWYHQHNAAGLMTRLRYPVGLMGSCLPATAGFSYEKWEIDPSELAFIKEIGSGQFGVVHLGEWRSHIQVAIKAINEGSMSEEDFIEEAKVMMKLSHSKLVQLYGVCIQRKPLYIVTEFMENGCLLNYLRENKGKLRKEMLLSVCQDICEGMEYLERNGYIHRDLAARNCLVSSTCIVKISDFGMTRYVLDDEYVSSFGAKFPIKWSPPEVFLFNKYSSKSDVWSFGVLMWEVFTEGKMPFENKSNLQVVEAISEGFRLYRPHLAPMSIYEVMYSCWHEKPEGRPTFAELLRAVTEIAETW

[2] = molecular target: T2, Serine/threonine-protein kinase 3 (Homo sapiens) (UniProt Q13188); assay: Selectivity interaction (SelectScreen profiling (Invitrogen)) EUB0000607a STK3; conditions: at 2 µM
T2 sequence (whole entry): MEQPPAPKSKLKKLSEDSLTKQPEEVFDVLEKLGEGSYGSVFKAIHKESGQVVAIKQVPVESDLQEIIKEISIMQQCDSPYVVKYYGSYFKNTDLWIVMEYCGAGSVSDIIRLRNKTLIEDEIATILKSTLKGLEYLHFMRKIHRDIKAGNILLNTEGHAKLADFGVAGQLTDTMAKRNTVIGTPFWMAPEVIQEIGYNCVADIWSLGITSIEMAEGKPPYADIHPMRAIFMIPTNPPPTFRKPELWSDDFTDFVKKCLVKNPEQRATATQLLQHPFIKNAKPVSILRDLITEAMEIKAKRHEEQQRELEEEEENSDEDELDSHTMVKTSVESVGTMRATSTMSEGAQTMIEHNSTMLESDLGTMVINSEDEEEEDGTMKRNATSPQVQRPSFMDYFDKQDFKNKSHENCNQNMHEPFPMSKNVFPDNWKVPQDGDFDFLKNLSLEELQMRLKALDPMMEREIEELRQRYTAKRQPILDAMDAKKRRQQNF

[3] = molecular target: Receptor tyrosine-protein kinase erbB-2 (Homo sapiens, UniProt P04626); assay: Selectivity interaction (KinomeScan (DiscoverX)) EUB0000045b ERBB2
[4] = molecular target: Protein-tyrosine kinase 6 (Homo sapiens, UniProt Q13882); assay: Selectivity interaction (KinomeScan (DiscoverX)) EUB0000595a PTK6; conditions: at 10 µM
[5] = molecular target: Cyclin-dependent kinase 5 (Homo sapiens, UniProt Q00535); assay: Selectivity interaction (ActivX KiNativ screen (kinase selectivity in THP-1 cell lysates)) EUB0000639a CDK5; assay type: subcellular; conditions: lysate
[6] = molecular target: T3, Serine/threonine-protein kinase DCLK3 (Homo sapiens) (UniProt Q9C098); assay: Selectivity interaction (KinomeScan (DiscoverX)) EUB0000229b DCLK3; conditions: at 10 µM
T3 sequence (whole entry): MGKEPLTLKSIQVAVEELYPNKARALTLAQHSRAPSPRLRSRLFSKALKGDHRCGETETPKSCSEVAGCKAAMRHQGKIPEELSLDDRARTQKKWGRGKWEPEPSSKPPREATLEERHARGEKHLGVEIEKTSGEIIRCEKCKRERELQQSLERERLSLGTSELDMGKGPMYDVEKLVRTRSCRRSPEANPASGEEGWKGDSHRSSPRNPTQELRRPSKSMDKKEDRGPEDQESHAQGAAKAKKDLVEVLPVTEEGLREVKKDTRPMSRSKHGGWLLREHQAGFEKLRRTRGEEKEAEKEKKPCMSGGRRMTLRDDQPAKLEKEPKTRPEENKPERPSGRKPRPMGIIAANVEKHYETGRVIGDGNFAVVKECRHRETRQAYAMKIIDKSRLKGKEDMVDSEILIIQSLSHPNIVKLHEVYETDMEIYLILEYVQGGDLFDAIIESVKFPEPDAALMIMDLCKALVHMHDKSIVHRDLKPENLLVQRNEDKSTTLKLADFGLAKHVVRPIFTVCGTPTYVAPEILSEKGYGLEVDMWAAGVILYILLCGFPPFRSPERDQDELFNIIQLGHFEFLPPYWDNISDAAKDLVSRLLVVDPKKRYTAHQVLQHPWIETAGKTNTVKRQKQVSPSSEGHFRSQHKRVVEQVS

[7] = molecular target: T4, Inhibitor of nuclear factor kappa-B kinase subunit epsilon (Homo sapiens) (UniProt Q14164); assay: Selectivity interaction (ProQinase) EUB0000171b IKBKE
T4 sequence (whole entry): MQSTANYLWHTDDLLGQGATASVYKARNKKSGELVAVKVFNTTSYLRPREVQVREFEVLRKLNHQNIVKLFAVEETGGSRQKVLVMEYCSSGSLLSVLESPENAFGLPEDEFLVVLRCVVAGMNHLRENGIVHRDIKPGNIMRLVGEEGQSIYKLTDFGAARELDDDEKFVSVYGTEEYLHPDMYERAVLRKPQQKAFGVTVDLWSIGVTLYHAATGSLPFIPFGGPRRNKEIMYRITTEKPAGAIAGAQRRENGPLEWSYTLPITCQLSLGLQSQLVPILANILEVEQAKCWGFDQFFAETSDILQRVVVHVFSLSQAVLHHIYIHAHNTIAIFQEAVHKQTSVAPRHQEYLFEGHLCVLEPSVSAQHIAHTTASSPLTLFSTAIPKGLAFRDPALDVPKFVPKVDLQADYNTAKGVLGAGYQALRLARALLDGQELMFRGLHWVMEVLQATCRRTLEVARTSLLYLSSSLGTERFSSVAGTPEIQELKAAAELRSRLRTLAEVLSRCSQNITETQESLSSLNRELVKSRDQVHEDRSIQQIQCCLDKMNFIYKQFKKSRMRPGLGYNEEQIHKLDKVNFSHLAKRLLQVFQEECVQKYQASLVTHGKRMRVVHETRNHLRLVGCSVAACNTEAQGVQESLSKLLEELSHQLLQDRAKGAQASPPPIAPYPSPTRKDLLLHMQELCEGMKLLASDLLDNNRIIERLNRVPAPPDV

[8] = molecular target: T1, Tyrosine-protein kinase TXK (Homo sapiens); assay: Selectivity interaction (ProQinase) EUB0000171b TXK
[9] = molecular target: Alpha-1A adrenergic receptor (Homo sapiens, UniProt P35348); assay: Selectivity interaction (Alpha1A calcium flux assay ) EUB0000877a ADRA1A
Chain of Alpha-1A adrenergic receptor (P35348 whole entry): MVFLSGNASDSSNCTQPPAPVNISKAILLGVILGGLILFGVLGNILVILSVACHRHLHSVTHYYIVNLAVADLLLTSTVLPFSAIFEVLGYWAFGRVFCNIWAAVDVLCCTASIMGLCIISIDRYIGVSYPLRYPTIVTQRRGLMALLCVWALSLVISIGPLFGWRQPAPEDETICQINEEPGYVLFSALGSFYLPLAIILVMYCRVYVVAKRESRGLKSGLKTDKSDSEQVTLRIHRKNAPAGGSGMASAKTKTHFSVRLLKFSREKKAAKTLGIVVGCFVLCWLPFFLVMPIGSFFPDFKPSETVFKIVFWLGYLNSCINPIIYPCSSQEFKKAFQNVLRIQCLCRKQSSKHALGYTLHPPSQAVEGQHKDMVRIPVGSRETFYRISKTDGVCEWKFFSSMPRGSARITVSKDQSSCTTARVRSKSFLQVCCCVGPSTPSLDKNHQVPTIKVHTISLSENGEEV

Chain of Cyclin-dependent kinase 5 (Q00535 whole entry, looked up): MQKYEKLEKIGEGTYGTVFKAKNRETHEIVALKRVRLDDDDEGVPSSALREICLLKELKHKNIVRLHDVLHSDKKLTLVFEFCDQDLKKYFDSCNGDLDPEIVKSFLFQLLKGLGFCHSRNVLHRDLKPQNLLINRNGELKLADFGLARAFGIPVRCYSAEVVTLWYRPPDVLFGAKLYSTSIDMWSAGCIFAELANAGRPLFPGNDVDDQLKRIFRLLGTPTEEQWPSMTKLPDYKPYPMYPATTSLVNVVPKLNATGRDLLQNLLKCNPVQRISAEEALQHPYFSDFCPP
Chain of Receptor tyrosine-protein kinase erbB-2 (P04626 whole entry): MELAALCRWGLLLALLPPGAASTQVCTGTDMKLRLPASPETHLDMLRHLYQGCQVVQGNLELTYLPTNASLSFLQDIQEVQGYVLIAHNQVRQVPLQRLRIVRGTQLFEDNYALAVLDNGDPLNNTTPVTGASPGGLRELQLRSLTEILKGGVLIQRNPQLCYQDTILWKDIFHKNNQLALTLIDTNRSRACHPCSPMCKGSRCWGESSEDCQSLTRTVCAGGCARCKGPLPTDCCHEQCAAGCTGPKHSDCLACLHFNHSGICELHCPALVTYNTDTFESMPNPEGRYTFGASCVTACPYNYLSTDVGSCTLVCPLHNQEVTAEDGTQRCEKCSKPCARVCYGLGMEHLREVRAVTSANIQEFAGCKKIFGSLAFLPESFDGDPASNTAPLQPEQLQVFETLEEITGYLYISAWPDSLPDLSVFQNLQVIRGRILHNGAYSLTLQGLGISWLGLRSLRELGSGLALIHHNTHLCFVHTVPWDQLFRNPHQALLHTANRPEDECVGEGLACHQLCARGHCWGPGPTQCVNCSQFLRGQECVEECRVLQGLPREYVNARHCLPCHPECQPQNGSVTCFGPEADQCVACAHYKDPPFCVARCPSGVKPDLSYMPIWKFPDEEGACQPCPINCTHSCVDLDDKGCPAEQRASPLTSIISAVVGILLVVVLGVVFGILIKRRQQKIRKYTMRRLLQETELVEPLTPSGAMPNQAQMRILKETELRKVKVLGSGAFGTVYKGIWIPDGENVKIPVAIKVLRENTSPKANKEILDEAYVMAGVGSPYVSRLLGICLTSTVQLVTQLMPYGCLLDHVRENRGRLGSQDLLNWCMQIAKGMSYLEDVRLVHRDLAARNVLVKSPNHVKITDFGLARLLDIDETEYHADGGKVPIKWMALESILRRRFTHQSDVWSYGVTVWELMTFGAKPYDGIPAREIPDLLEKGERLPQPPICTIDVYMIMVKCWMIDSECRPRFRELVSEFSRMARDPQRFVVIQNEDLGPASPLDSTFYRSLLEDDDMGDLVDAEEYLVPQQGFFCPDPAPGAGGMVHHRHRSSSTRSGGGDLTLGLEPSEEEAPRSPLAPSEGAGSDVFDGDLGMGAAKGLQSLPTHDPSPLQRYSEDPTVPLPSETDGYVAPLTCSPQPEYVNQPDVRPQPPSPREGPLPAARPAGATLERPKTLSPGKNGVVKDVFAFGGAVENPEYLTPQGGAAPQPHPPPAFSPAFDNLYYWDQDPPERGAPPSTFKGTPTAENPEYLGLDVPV
Chain of Protein-tyrosine kinase 6 (Q13882 whole entry, looked up): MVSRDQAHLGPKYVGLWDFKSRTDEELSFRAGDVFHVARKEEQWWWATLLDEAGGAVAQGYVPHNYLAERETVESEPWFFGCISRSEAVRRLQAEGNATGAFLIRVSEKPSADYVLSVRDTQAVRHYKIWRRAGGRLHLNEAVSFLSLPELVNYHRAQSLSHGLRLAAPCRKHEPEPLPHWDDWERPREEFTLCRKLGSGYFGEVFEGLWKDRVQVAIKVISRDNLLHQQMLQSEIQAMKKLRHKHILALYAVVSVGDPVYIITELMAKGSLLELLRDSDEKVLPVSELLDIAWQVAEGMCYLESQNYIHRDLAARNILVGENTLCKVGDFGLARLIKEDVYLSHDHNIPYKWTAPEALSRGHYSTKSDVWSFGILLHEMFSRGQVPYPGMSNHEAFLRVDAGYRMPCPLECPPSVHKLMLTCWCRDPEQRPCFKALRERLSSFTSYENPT

Which % of control [1] does the source give for `CN(C)CCOc1ccc(-c2nc(-c3ccncc3)c(-c3ccc4c(c3)CC/C4=N\O)[nH]2)cc1` here?
The % of control was 97%.

With `CNC(=O)Nc1ccc(-c2nc(N3CC4CCC(C3)O4)c3cnn(C4CCC5(CC4)OCCO5)c3n2)cc1` as the compound, how does the % of inhibition [2] read?
The % of inhibition was 0%.

With `C=CC(=O)Nc1cc(-n2c(=O)ccc3cnc4ccc(-c5ccc(NS(C)(=O)=O)cc5)cc4c32)ccc1C` as the compound, how does the % of control ([3]; at 1 µM) read?
Its % of control is 90%.

And the % of control ([3]; at 10 µM)?
Its % of control is 26%.

`COCC(=O)NC/C=C/c1ccc2ncnc(Nc3ccc(Oc4ccc(C)nc4)c(C)c3)c2c1` [CP-724714] was tested. Which % of control [4] did it give?
Its % of control is 100%.

What does the source list for `CC[C@@H]1[C@H](F)C(=O)N[C@@H]1COc1nccc2cc(C(N)=O)c(OC)cc12` [ZIMLOVISERTIB]?
% of inhibition ([5]; at 0.01 µM): 3.6%; % of inhibition ([5]; at 0.04 µM): 3.9%; % of inhibition ([5]; at 0.2 µM): -0.2%; % of inhibition ([5]; at 1 µM): 2.7%; % of inhibition ([5]; at 5 µM): -6.9%

For `COc1cc(N(C)c2ccnc3ccc(C(F)(F)F)cc23)cc(OC)c1OC`, which % binding [6] is on record?
Its % binding is 97%.

With `C=CC(=O)Nc1cccc(C(=O)Nc2ccc(Nc3cc(-c4[nH]c(SC)nc4C)ccn3)cc2)c1` as the compound, how does the % of control ([7]; at 1 µM) read?
The % of control was 88%.

What about the % of control ([7]; at 5 µM) of the same compound?
Its % of control is 70%.

And the % of control ([8]; at 1 µM)?
The % of control was 87%.

What about the % of control ([8]; at 5 µM) of the same compound?
The % of control was 77%.

`CCC(=O)N1CC[C@H](Nc2ncnc3c2CN(c2cnc(OC)c(C(F)(F)F)c2)CC3)C1` [LENIOLISIB] was tested. Which IC50 [9] did it give?
Its IC50 is > 30 µM.
